The values that follow are results of earlier work, collected in US5543414A, “Achiral amino acid acyl esters of ganciclovir and its derivatives” (priority 1994, dated 1996).

Where a name gives a salt, the structure may show the parent alone. Read-outs that look alike come from different tables or passages of the source.

For data set [1] the following is noted: in vivo.
Experiment in data set [2]: not given
The source holds these as a separate data set.

Experiment in data set [3]: not given
The source holds these as a separate data set.

For data set [4], the system named is epithelial and stromal herpes simplex keratitis and associated iritis. Particulars: glycine ester: 1% eye drop formulation, rabbits; acyclovir: ointment.
The subject of data set [5] is viruses of the herpes family. Particulars: e.g. herpes simplex, cytomegalovirus.
For data set [6] the following is noted: oral administration.
Experiment in data set [7]: not given
The source holds these as a separate data set.

The test system of data set [8] is herpes simplex virus type 1 and type 2 strains. Particulars: primary rabbit kidney cell cultures.
Experiment in data set [9]: not given
This is another data set of the same source.

For `CC[C@H](N)C(=O)OCCOCn1cnc2c(=O)[nH]c(N)nc21`, where the note is “rat, in vivo”, the “amounts of the parent drug in the urine compared with acyclovir” value (“amounts … compared with acyclovir” for short) is reported as “greater amounts of the parent drug in the urine than acyclovir itself”. As to `CC(N)C(=O)OCCOCn1cnc2c(=O)[nH]c(N)nc21` (racemic) [D,L-alanyl], the “amounts … compared with acyclovir” value (rat, in vivo) is given as “greater amounts of the parent drug in the urine than acyclovir itself”. For `CC(C)C(N)C(=O)OCCOCn1cnc2c(=O)nc(N)[nH]c21` (racemic) [D,L-valyl], under “rat, in vivo”, the “amounts … compared with acyclovir” value was “greater amounts of the parent drug in the urine than acyclovir itself”. On to `CCC(C)C(N)C(=O)OCCOCn1cnc2c(=O)[nH]c(N)nc21` (racemic) [DL-isoleucyl], for which, under “rats”, the “amounts … compared with acyclovir” value is listed as “greater amounts of the parent drug in the urine than acyclovir itself”. For the molecule `Nc1ncc2ncn(COCCO)c2n1` [6-deoxy-acyclovir], the “conversion to parent drug” value in data set [1] is on record as “readily converted in vivo by the action of enzymes”. In data set [2] (oral administration, rats), the “absorption and plasma levels of the parent drugs” value is “efficient absorption from the gastro-intestinal tract and high plasma levels of the parent drugs”. As for `Nc1ncc2ncn(COC(CO)CO)c2n1` [6-deoxy-ganciclovir], the “conversion to parent drug” value in data set [1] was “readily converted in vivo by the action of enzymes”. Besides, in data set [2] (rat, in vivo, po), the “absorption and plasma levels of the parent drugs” value was “efficient absorption from the gastro-intestinal tract and high plasma levels of the parent drugs”. Consider `C[C@H](N)C(=O)OCCOCn1cnc2c(=O)[nH]c(N)nc21` [L-alanyl], for which the “amounts … compared with acyclovir” value (rat, in vivo) is recorded as “greater amounts of the parent drug in the urine than acyclovir itself”. `CC[C@H](C)[C@H](N)C(=O)OCCOCn1cnc2c(=O)[nH]c(N)nc21` [L-isoleucyl]: the “amounts … compared with acyclovir” value (rat, in vivo) was “greater amounts of the parent drug in the urine than acyclovir itself”.

Regarding `CSCC[C@H](N)C(=O)OCCOCn1cnc2c(=O)[nH]c(N)nc21` [L-methionyl], the “amounts … compared with acyclovir” value (rat, in vivo) is “greater amounts of the parent drug in the urine than acyclovir itself”. On to `Nc1nc2c(ncn2COCCOC(=O)[C@@H]2CCCN2)c(=O)[nH]1` [L-prolyl ester], for which the “amounts … compared with acyclovir” value (rat, in vivo) is given as “greater amounts of the parent drug in the urine than acyclovir itself”. For the molecule `CC(C)[C@H](N)C(=O)OCCOCn1cnc2c(=O)[nH]c(N)nc21` [L-valyl ester of acyclovir], under “rats”, the “amounts … compared with acyclovir” value is on record as “greater amounts of the parent drug in the urine than acyclovir itself” and the “ranking as prodrug of acyclovir” value is “the best prodrug of the esters investigated”. On to `Nc1nc2c(ncn2COCCO)c(=O)[nH]1` [acyclovir, 2-(2-amino-1,6-dihydro-6-oxo-1,6-dihydro-purin-9-yl)methoxy-ethanol], for which the water solubility entry in data set [3] is “limited solubility in water”. Further, the “urinary recovery of acyclovir” value (rat, in vivo, po) was 19%. Besides, the “efficacy in topical treatment of herpes simplex keratitis and iritis” value in data set [4] is recorded as “hardly effective in stromal disease or iritis”. Besides, the antiviral activity entry in data set [5] is given as “good activity against herpes viruses such as herpes simplex”. Regarding `CCC(=O)OCC(COC(=O)CC)OCn1cnc2c(=O)[nH]c(N)nc21` [dipropionate ester], in [6], the “more bioavailable than ganciclovir itself” value was “about 42%”.

Take `Nc1nc2c(ncn2COC(CO)CO)c(=O)[nH]1` [ganciclovir, 9-[(2-hydroxy-1-hydroxymethyl-ethoxy)methyl]-guanine]: in data set [5], the antiviral activity entry is “highly efficacious against viruses of the herpes family, for example, against herpes simplex and cytomegalovirus”. Take `NCC(=O)OCCOCn1cnc2c(=O)[nH]c(N)nc21` [glycyl ester of acyclovir]: the “amounts … compared with acyclovir” value (rats) is recorded as “greater amounts of the parent drug in the urine than acyclovir itself”. Besides, the “efficacy in topical treatment of herpes simplex keratitis and iritis” value in data set [4] is “efficacious in the topical treatment of epithelial and stromal herpes simplex keratitis and associated iritis”. In addition, the “solubility greater than the solubility of acyclovir itself” value in [7] is on record as “about 30 fold”. With `CC(N)C(=O)OCCOCn1cnc2c(=O)[nH]c(N)nc21` (centres unmarked) [hydrochloride salt of the alanyl ester], in [8], the “activity against herpes simplex virus type 1 and type 2 compared with acyclovir” value (“activity … compared with acyclovir” for short) is reported as “almost as active as acyclovir itself”. As for `NCC(=O)OCCOCn1cnc2c(=O)[nH]c(N)nc21` [hydrochloride salt of the glycyl ester], the “activity … compared with acyclovir” value in [8] is listed as “almost as active as acyclovir itself”.

Turning to `NCCC(=O)OCCOCn1cnc2c(=O)[nH]c(N)nc21` [hydrochloride salt of the β-alanyl ester], in data set [8], the “activity … compared with acyclovir” value is reported as “almost as active as acyclovir itself”. For the molecule `CCC(C)C(N)C(=O)OCCOCn1cnc2c(=O)[nH]c(N)nc21` (centres unmarked) [isoleucine ester of acyclovir], the “absorption from the gut compared with other esters and acyclovir” value in [9] (oral administration, preferably in the L-form) is “large increase in absorption from the gut after oral administration”.

As for `Nc1nc2c(ncn2COCCOC(=O)CCC(=O)O)c(=O)[nH]1` [sodium salt of the succinyl ester], in data set [8], the “activity … compared with acyclovir” value is reported as “almost as active as acyclovir itself”. As to `CC(C)[C@H](N)C(=O)OCCOCn1cnc2c(=O)nc(N)[nH]c21` [valine ester of acyclovir], the “absorption from the gut compared with other esters and acyclovir” value in data set [9] (in vivo, po) was “large increase in absorption from the gut after oral administration”.
